This is an account of results in ChEMBL document CHEMBL1909046, “DrugMatrix in vitro pharmacology data”.

For one assay, the target named is T1, Glucocorticoid receptor (Homo sapiens, UniProt P04150). Further: in other assays of this panel Not Active means under 50% inhibition at 10 µM.
T1 sequence (P04150 whole entry): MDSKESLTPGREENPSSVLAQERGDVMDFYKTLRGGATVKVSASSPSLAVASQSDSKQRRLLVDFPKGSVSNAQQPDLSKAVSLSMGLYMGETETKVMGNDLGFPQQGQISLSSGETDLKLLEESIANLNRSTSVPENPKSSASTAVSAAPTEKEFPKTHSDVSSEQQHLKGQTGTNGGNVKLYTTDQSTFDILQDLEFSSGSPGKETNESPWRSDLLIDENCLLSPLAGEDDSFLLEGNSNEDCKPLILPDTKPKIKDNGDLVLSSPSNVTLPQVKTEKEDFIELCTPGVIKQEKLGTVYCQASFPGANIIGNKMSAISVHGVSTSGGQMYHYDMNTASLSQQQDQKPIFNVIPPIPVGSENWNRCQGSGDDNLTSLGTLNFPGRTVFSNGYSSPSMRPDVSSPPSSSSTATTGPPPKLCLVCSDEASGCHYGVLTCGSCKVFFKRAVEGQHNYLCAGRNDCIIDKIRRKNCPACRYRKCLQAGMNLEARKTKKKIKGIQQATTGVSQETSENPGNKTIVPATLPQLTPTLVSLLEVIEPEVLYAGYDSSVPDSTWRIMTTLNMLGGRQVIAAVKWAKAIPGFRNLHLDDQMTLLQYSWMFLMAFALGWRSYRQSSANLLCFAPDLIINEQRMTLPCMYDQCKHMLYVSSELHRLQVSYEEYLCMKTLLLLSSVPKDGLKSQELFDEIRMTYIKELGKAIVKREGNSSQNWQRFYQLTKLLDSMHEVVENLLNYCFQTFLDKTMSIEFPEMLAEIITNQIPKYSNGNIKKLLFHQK
The conditions noted are these: hela s3.

Assay [1] has as its target Sodium-dependent dopamine transporter (Homo sapiens, UniProt Q01959). Put plainly: DRUGMATRIX: Dopamine Transporter radioligand binding (ligand: [125I] RTI-55). The format is cell membranes, CHO-K1, Membrane. The conditions noted are these: Not Active = under 50% inhibition at 10 µM.
The target in assay [2] is T2, Alpha-2A adrenergic receptor (Homo sapiens, UniProt P08913). Further: in other assays of this panel Not Active means under 50% inhibition at 10 µM.
T2 sequence (P08913 whole entry): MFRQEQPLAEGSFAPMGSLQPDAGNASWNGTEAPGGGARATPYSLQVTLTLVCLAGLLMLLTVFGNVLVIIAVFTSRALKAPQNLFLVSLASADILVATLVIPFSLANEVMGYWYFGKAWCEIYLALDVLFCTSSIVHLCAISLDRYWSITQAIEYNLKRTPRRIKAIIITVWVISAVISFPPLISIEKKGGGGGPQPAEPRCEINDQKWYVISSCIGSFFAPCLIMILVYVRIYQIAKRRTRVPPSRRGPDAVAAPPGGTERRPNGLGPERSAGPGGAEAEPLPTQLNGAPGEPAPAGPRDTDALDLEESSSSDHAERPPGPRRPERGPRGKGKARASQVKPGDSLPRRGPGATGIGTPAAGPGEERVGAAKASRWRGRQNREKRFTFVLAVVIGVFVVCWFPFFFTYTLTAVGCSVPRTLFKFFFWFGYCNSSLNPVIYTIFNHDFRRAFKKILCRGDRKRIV
In kind it is cell membranes, Sf9, Membrane.

Assay [3] can be described thus: DRUGMATRIX: GABAA, Flunitrazepam, Central radioligand binding (ligand: [3H] Flunitrazepam). The format is cell membranes, Rattus norvegicus, Wistar, Brain, Membrane. The conditions noted are these: Not Active = under 50% inhibition at 10 µM.
The target of the next assay is D(3) dopamine receptor (Homo sapiens, UniProt P35462). Put plainly: DRUGMATRIX: Dopamine D3 radioligand binding (ligand: [3H] Spiperone). In kind it is cell membranes, CHO, Membrane.
D(3) dopamine receptor, sequence (P35462 whole entry): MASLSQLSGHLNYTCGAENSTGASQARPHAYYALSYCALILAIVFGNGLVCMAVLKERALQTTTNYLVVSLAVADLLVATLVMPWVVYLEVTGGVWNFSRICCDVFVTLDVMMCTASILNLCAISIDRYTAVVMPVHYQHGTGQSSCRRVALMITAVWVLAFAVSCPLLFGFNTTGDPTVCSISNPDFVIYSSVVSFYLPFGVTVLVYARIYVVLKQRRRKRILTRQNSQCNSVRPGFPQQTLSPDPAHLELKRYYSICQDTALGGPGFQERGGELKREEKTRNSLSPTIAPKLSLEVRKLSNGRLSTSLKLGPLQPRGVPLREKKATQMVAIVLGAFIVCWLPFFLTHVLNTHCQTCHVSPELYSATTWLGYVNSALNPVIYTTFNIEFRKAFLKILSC

Sodium-dependent dopamine transporter, sequence (Q01959 whole entry): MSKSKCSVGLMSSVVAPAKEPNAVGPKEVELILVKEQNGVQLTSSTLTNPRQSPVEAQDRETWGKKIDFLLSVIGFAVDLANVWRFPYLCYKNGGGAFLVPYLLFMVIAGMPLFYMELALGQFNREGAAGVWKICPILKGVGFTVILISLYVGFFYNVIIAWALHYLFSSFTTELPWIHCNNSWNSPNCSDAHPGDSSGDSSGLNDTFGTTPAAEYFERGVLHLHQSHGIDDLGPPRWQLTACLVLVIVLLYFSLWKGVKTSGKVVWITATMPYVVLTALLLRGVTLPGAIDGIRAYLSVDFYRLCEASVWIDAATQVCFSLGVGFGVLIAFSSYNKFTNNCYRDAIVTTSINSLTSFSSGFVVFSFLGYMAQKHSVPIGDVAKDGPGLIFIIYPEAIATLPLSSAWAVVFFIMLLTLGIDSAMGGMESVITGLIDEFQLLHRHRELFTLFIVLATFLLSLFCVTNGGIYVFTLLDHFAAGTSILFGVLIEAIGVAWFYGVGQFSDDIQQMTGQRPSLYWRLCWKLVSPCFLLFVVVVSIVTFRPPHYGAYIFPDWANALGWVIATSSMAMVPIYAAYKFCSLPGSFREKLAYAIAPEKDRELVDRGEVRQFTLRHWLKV

The IC50 is the midpoint of a concentration-inhibition curve. What is called Ki is the dissociation constant of the complex between target and ligand, obtained from inhibition or displacement. Consider `CCCOc1ccccc1-c1nc2nn[nH]c2c(=O)[nH]1` [ZAPRINAST], for which the IC50 result (at Glucocorticoid receptor; in assay [1] (cho-k1); in assay [2] (sf9); in assay [3]; at D(3) dopamine receptor (cho)) was “Not Active” throughout. The Ki result in assay [3] is listed as “Not Active”.
Consider `Nc1nc2nc[nH]c2c(=S)[nH]1` [THIOGUANINE], for which the IC50 entry (on Glucocorticoid receptor; in assay [1] (cho-k1); in assay [2] (sf9); in assay [3]; at D(3) dopamine receptor (cho)) was “Not Active” each time. Also, the Ki result in assay [3] was “Not Active”.
In the case of `COc1nc(C)nc(Cl)c1NC1=NCCN1` [MOXONIDINE], the IC50 entry (on Glucocorticoid receptor; in assay [1] (cho-k1); in assay [2] (sf9); in assay [3]; at D(3) dopamine receptor (cho)) was “Not Active” throughout. Moreover, the Ki result in assay [3] was “Not Active”.
Consider `O=c1ncn2nc(Sc3ccc(F)cc3F)ccc2c1-c1c(Cl)cccc1Cl` [NEFLAMAPIMOD], for which the IC50 entry is “Not Active” against Glucocorticoid receptor; 8.1 µM in assay [1] (read-out: IC50); 34.2 µM in assay [2] (read-out: IC50); 12 µM in assay [3] (read-out: IC50); “Not Active” on D(3) dopamine receptor (cho). In addition, the figures for the Ki in assay [1] (read-out: Ki), in assay [2] (read-out: Ki) and in assay [3] (read-out: Ki) were 6.43 µM, 12.8 µM and 9.77 µM, respectively.
Consider `CC[C@]1(O)C[C@H]2CN(CCc3c([nH]c4ccccc34)[C@@](C(=O)OC)(c3cc4c(cc3OC)N(C=O)[C@H]3[C@@](O)(C(=O)OC)[C@H](OC(C)=O)[C@]5(CC)C=CCN6CC[C@]43[C@@H]65)C2)C1` [VINCRISTINE], for which the IC50 entry (against Glucocorticoid receptor; in assay [1] (cho-k1); in assay [2] (sf9); in assay [3]; at D(3) dopamine receptor (cho)) was “Not Active” each time. Moreover, in assay [3], the Ki result is “Not Active”.
Take `N[C@@H](Cc1ccc(O)c(O)c1)C(=O)O` [LEVODOPA]: the IC50 result (at Glucocorticoid receptor; in assay [1] (cho-k1); in assay [2] (sf9); in assay [3]; on D(3) dopamine receptor (cho)) was “Not Active” in each case. The Ki result in assay [3] is reported as “Not Active”.
With `CCOC(=O)N1CCC(=C2c3ccc(Cl)cc3CCc3cccnc32)CC1` [LORATADINE], the IC50 entry (against Glucocorticoid receptor; in assay [1] (cho-k1); in assay [2] (sf9); in assay [3]; on D(3) dopamine receptor (cho)) was “Not Active” each time. Also, in assay [3], the Ki result is given as “Not Active”.
For the compound `c1ccc([C@H]2CN3CCSC3=N2)cc1` [LEVAMISOLE], the Ki result (at Glucocorticoid receptor; in assay [3]) was “Not Active” throughout. The IC50 result (in assay [1] (cho-k1); in assay [2] (sf9); in assay [3]; at D(3) dopamine receptor (cho)) was “Not Active” throughout.
As to `CC[C@@H](CO)NC(=O)[C@@H]1C=C2c3cccc4[nH]cc(c34)C[C@H]2N(C)C1` [METHYLERGONOVINE], the IC50 entry against Glucocorticoid receptor was “Not Active”; in assay [1] (cho-k1), “Not Active”; in assay [2] (read-out: IC50) it was 1.59 µM; in assay [3], “Not Active”; on D(3) dopamine receptor (read-out: IC50) it was 0.167 µM. In addition, the Ki in assay [2] (read-out: Ki) was 0.596 µM; in assay [3], “Not Active”; at D(3) dopamine receptor (read-out: Ki), 0.057 µM.
Regarding SODIUM NITROPRUSSIDE, the IC50 entry (at Glucocorticoid receptor; in assay [1] (cho-k1); in assay [2] (sf9); in assay [3]; at D(3) dopamine receptor (cho)) was “Not Active” throughout. Moreover, the Ki result (at Glucocorticoid receptor; in assay [1] (cho-k1); in assay [2] (sf9); in assay [3]; on D(3) dopamine receptor (cho)) was “Not Active” each time.
As for `Cc1oncc1C(=O)Nc1ccc(C(F)(F)F)cc1` [LEFLUNOMIDE], the IC50 result was “Not Active” at Glucocorticoid receptor; 2.88 µM in assay [1] (read-out: IC50); “Not Active” in assay [2] (sf9); “Not Active” in assay [3]; “Not Active” at D(3) dopamine receptor (cho). The Ki in assay [1] (read-out: Ki) was 2.29 µM; in assay [3], “Not Active”.
